Data from US12234223B2, “Phthalazinone compound, and preparation method therefor and medical use thereof” (SHANGHAI JEMINCARE PHARMACEUTICALS CO., LTD, priority 2020, dated 2025).

Tests used:
Androgen receptor = biological target: T1, Androgen receptor (Homo sapiens, UniProt P10275); assay: Androgen receptor In-Cell-Western assay (AR degradation in VCaP cells); format: cell-based; details: 24 hours treatment; for DC50: concentration for half the maximum degradation degree of AR in VCaP cells; for Dmax: maximum degradation degree of AR in VCaP cells
T1 construct: Dmax: a maximum degradation degree of AR in VCaP cells; endogenous in cells; host or cells: VCaP cells
T1 sequence (P10275 1-920): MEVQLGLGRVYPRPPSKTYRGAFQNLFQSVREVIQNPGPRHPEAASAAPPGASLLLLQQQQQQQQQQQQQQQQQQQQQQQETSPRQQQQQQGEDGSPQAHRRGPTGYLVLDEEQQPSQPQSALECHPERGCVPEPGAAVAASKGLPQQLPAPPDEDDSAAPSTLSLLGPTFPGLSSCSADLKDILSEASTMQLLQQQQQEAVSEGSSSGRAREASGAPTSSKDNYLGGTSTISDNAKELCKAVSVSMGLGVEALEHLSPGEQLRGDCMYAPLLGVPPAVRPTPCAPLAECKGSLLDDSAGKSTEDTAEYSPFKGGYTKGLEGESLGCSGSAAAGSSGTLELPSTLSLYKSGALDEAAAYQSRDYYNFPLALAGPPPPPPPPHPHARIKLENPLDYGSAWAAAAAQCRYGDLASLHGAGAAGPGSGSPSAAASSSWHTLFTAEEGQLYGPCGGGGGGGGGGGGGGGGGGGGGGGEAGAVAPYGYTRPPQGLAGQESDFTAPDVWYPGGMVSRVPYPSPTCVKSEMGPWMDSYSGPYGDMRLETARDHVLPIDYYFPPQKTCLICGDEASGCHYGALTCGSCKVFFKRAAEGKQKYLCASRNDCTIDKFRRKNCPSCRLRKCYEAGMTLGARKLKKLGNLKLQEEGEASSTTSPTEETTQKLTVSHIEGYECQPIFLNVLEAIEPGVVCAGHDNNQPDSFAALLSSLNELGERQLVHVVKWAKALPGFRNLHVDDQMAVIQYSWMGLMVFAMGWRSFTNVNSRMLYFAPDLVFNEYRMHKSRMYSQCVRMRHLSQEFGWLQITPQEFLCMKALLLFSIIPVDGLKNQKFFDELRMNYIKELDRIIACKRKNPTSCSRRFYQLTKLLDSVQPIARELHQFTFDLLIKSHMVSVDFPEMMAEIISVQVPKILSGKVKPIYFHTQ
Procedure: This assay evaluated compound performance in VCap cells. An intracellular androgen receptor was assayed by In-Cell-Western according to the assay procedure described below.
In a 96-well cell culture plate (Corning 3599) pretreated by poly-D-Lysin, Vcap cells were seeded to a Vcap cell assay medium [phenol red containing DMEM (Gibco Cat. No.: 11995065); fetal bovine serum FBS (Gibco Cat. No.: 10099141C)] at a volume of 100 μL/well and a cell density of 50,000 cells/well. Cells were cultured for at least two days. • 1. First, cells were treated with a compound. The compound was subjected to a gradient dilution by using DMSO and a cell culture medium, so that DMSO contained in the cell culture plate was diluted to 0.5%: a polypropylene plate was used according to the following protocol: • (1) (i) A 200× stock solution plate was prepared in DMSO; (ii) a 10 mM stock solution was diluted at 1:4 (10 μL stock solution+40 μL DMSO=2000 uM) with DMSO to enter row 2; (iii) a 1:4 (10 μL protac+40 μL DMSO) gradient dilution was performed from row 2 to row 9, row 1 was reserved for a 2000 uM reference compound and row 10 was reserved for DMSO. (iv) There were 8 concentrations (the final concentrations on the 200× plate was 2000 uM, 400 uM, 80 uM, etc.) in total. (2) (i) A 3× stock solution was prepared in the medium; (ii) 3 μL of the 200× stock solution was transferred to 197 μL of the medium (by a 12-channel pipette, from row 1 to row 10), i.e. a 3× stock solution plate. (iii) Uniform mixing was performed for the stock solution plate. (3) (i) The medium of Vcap cells was replaced with a fresh medium, with the medium volume of 100 μL. (ii) The uniformly-mixed 3× stock solution was transferred to the cell culture plate (by the 12-channel pipette, 50 μL of the stock solution was transferred from row 1 to row 10). (iii) The cells were cultured for 24 hours. • 2. The expression level of the intracellular androgen receptor after compound treatment was detected, and assay was performed according to the following method. • (1) (i) An equal volume of 8% paraformaldehyde was added to the cell culture plate for cell fixation. A fixative solution in the cell plate was discarded, and the cell plate was washed three times with PBS. (ii) A Triton solution was prepared (the stock solution was diluted at 1:1000). The solution in the cell plate was discarded, and a volume of 200 μL of a Triton diluent was added to each well. (iii) A 2× blocking solution was prepared (a 10× blocking stock solution was diluted at 1:4). The solution in the cell plate was discarded, and a volume of 100 μL of the 2× blocking solution was added to each well. (iv) A primary antibody solution (Androgen receptor Rabbit mAb, Cell Signaling Technology Cat. No.: 5153; 1:1000 dilution) was prepared. The solution in the cell plate was discarded, a volume of 100 μL of a primary antibody diluent was added to each well, and incubation was performed at 4 degrees overnight. (v) The primary antibody solution was discarded, and the cell plate was washed with 1× Wash buffer (Wash buffer in the present application means a washing buffer solution). (vi) A secondary antibody solution (Goat anti Rabbit IgG (H+L) Secondary Antibody, HRP, Thermo Cat. No.: 31460; 1:5000 dilution) was prepared, and a volume of 100 μL of a secondary antibody diluent was added to each well for incubation. (vii) The secondary antibody solution in the cell plate was discarded, and the cell plate was washed with 1× Wash buffer. (viii) A TMB chromogenic solution (BD Cat. No.: 550534) was prepared, and a volume of 100 μL of the chromogenic solution was added to each well. (ix) A volume of 50 μL of a stop solution (BD Cat. No.: 550534) was added to each well. (x) Absorption values at OD 450 nm and 570 nm were read by EnVision. (2) (i) Normalized analysis was performed for the number of cells in each well. The solution in the cell plate was discarded, and the cell plate was washed three times with wash buffer. […]

VCaP cells = assay: Inhibitory effect on VCaP cell proliferation (Cell Titer Glo); format: cell-based; details: Homo sapiens, 144 h; for IC50: VCaP cells, 5% FBS and 0.1 nM R1881, 6 days; for Emax: maximum degree of VCaP cell proliferation inhibition, 6 days
Procedure: A tumor cell line Vcap (ATCC Cat. No. CRL-2876) was respectively cultured with DMEM (Gibco Cat. No. 11965-092) medium containing 10% FBS (Gibco Cat. No. 10099-141C). During testing, Vcap cells were replaced with a DMEM culture fluid containing 5% FBS and 0.1 nM R1881 (Sigma Cat. No. R0908). The assay method was as follows:
Vcap cells were seeded to a 384-well plate (Perkin Elmer Cat. No. 6007460) at a cell density of 1200 cells/well and a volume of 20 μL/well; after the cells were incubated overnight in a carbon dioxide incubator (Thermo), the prepared compound solutions with different concentrations were added at a volume of 5 μL/well; meanwhile, a corresponding solvent was provided as a control; after the cells were continuously incubated in the incubator for 6 days, the cell plate and the contents thereof were equilibrated to room temperature; 25 μL of a Cell Titer Glor (Promega Cat. No. G7573) reagent was added to each well; after vibration and uniform mixing, incubation in the dark was performed for 10-30 minutes, and a signal value was detected with Envision microplate reader (PerkinElmer).
A percentage inhibition rate of compound-treated wells was calculated through solvent control wells on the plate, GraphPad prism was used to fit the percentage inhibition rate data corresponding to different concentrations, and IC50 value was calculated by a 4-parameter nonlinear logistic formula.
Emax: a maximum degree of VCaP cell proliferation inhibition. IC50: a compound concentration required to achieve half the maximum degree of VCaP cell proliferation inhibition.

| SMILES | DC50 (Androgen receptor) [µM] | Dmax (Androgen receptor) [%] | IC50 (VCaP cells) [µM] | Emax (VCaP cells) [%] |
| --- | --- | --- | --- | --- |
| CC1(C)[C@H](NC(=O)c2cnc(N3CCC(CCN4CCN(c5ccc6c(=O)n(C7CCC(=O)NC7=O)ncc6c5)CC4)C3)nc2)C(C)(C)[C@H]1Oc1ccc(C#N)c(Cl)c1 (some centres unmarked) [Compound 23] | 0.0069 | 98 | 0.02 | 56 |
| Cc1cc(O[C@H]2C(C)(C)[C@H](NC(=O)c3ccc(N4CCC(CN5CCN(c6ccc7c(=O)n(C8CCC(=O)NC8=O)ncc7c6)CC5)CC4)cc3)C2(C)C)ccc1C#N (some centres unmarked) [Compound 7] | 0.015 | 92 | – | – |
| CC1(C)[C@H](NC(=O)c2ccc(N3CCC(CN4CCN(c5ccc6cnn(C7CCC(=O)NC7=O)c(=O)c6c5)CC4)CC3)cc2)C(C)(C)[C@H]1Oc1ccc(C#N)c(Cl)c1 (some centres unmarked) [Compound 11] | 0.038 | 80 | – | – |
| CC1(C)[C@H](NC(=O)c2ccc(N3CCC(CN4CCN(c5ccc6c(=O)n(C7CCC(=O)NC7=O)ncc6c5)CC4)CC3)cc2)C(C)(C)[C@H]1Oc1ccc(C#N)c(C(F)(F)F)c1 (some centres unmarked) [Compound 3] | 0.012 | 104 | – | – |
| CC1(C)[C@H](NC(=O)c2ccc(N3CCC(CN4CCN(c5ccc6c(=O)n(C7CCC(=O)NC7=O)ncc6c5)CC4)CC3)nc2)C(C)(C)[C@H]1Oc1ccc(C#N)c(Cl)c1 (some centres unmarked) [Compound 4] | 0.0068 | 98 | 0.033 | 69 |
| N#Cc1ccc(O[C@H]2CC[C@H](NC(=O)c3ccc(N4CCC(CN5CCN(c6ccc7c(=O)n(C8CCC(=O)NC8=O)ncc7c6)CC5)CC4)cc3)CC2)cc1Cl (some centres unmarked) [Compound 13] | 0.0096 | 94 | – | – |
| CC1(C)[C@H](NC(=O)c2ccc(N3CCC(CN4CCN(c5ccc6c(=O)n(C7CCC(=O)NC7=O)ncc6c5)CC4)CC3)c(F)c2)C(C)(C)[C@H]1Oc1ccc(C#N)c(Cl)c1 (some centres unmarked) [Compound 5] | 0.0084 | 105 | 0.037 | 62 |
| CC1(C)[C@H](NC(=O)c2ccc(N3CCC(CN4CCN(c5ccc6c(=O)n(C7CCC(=O)NC7=O)ncc6c5)CC4)C3)cc2)C(C)(C)[C@H]1Oc1ccc(C#N)c(Cl)c1 (some centres unmarked) [Compound 16] | 0.0057 | 92 | – | – |
| CC1(C)[C@H](NC(=O)c2cnc(N3CCC(CN4CCN(c5ccc6c(=O)n(C7CCC(=O)NC7=O)ncc6c5)CC4)CC3)c(F)c2)C(C)(C)[C@H]1Oc1ccc(C#N)c(Cl)c1 (some centres unmarked) [Compound 26] | 0.032 | 109 | 0.045 | 60 |
| CC1(C)[C@H](NC(=O)c2ccc(N3CCC(CN4CC5CC4CN5c4ccc5c(=O)n(C6CCC(=O)NC6=O)ncc5c4)CC3)cc2)C(C)(C)[C@H]1Oc1ccc(C#N)c(Cl)c1 (some centres unmarked) [Compound 17] | 0.0069 | 88 | – | – |
| N#Cc1ccc(O[C@H]2CC[C@H](NC(=O)c3ccc(N4CC(CN5CCN(c6ccc7c(=O)n(C8CCC(=O)NC8=O)ncc7c6)CC5)C4)cc3)CC2)cc1Cl (some centres unmarked) [Compound 15] | 0.016 | 84 | – | – |
| CC1(C)[C@H](NC(=O)c2cnc(N3CCC(CN4CCN(c5ccc6c(=O)n(C7CCC(=O)NC7=O)ncc6c5)CC4)CC3)cn2)C(C)(C)[C@H]1Oc1ccc(C#N)c(Cl)c1 (some centres unmarked) [Compound 10] | 0.035 | 87 | – | – |
| CC1(C)[C@H](NC(=O)c2cnc(N3CCC(CN4CCN(c5ccc6c(=O)n(C7CCC(=O)NC7=O)ncc6c5)CC4)CC3)nc2)C(C)(C)[C@H]1Oc1ccc(C#N)c(Cl)c1 (some centres unmarked) [Compound 2] | 0.0053 | 114 | 0.011 | 60 |
| CC1(C)[C@H](NC(=O)c2cnc(N3CCC(CCN4CCN(c5ccc6c(=O)n(C7CCC(=O)NC7=O)ncc6c5)CC4)CC3)nc2)C(C)(C)[C@H]1Oc1ccc(C#N)c(Cl)c1 (some centres unmarked) [Compound 24] | 0.0068 | 106 | 0.018 | 53 |
| CC1(C)[C@H](NC(=O)c2cnc(N3CCCC(CN4CCN(c5ccc6c(=O)n(C7CCC(=O)NC7=O)ncc6c5)CC4)CC3)nc2)C(C)(C)[C@H]1Oc1ccc(C#N)c(Cl)c1 (some centres unmarked) [Compound 25] | 0.01 | 116 | 0.027 | 62 |
| CC1(C)C(NC(=O)c2ccc(N3CCC(CN4CCN(c5ccc6c(=O)n(C7CCC(=O)NC7=O)ncc6c5)CC4)CC3)nn2)C(C)(C)C1Oc1ccc(C#N)c(Cl)c1 (centres unmarked) [Compound 8] | 0.0089 | 75 | – | – |
| CC1(C)[C@H](NC(=O)c2ccc(N3CCC(CN4CCN(c5ccc6c(=O)n(C7CCC(=O)NC7=O)nc(C(F)(F)F)c6c5)CC4)CC3)cc2)C(C)(C)[C@H]1Oc1ccc(C#N)c(Cl)c1 (some centres unmarked) [Compound 32] | 0.0052 | 145 | – | – |
| CC1(C)[C@H](NC(=O)c2ccc(N3CC(CN4CCN(c5ccc6c(=O)n(C7CCC(=O)NC7=O)ncc6c5)CC4)C3)cc2)C(C)(C)[C@H]1Oc1ccc(C#N)c(Cl)c1 (some centres unmarked) [Compound 20] | – | – | 0.042 | 60 |
